ChEMBL document CHEMBL4007488, “Amphiphilic Indole Derivatives as Antimycobacterial Agents: Structure-Activity Relationships and Membrane Targeting Properties” (J Med Chem, 2017)

Legend:
[1] = system: Mycobacterium tuberculosis; assay: Antimycobacterial activity against Mycobacterium tuberculosis H37Rv ATCC 27294 assessed as growth inhibition at 10 uM after 5 days relative to control; assay type: functional; details: H37Rv ATCC 27294, 120 h, read-out: GI
[2] = system: Mycolicibacterium smegmatis; assay: Antimycobacterial activity against Mycobacterium smegmatis MC2 155 ATCC 700084 assessed as growth inhibition at 10 uM after 5 days relative to control; assay type: functional; details: MC2 155 ATCC 700084, 120 h, read-out: GI

SMILES	inhibition of growth at 10 µM [1] [%]	inhibition of growth at 10 µM [2] [%]
CCCCCCCCn1cc(CN2CCSCC2)c2cc(F)ccc21	99	99
CC(C)=CCC/C(C)=C/Cn1cc(CN2CCCCCC2)c2cc(F)ccc21	99	99
CCCCCCCCn1cc(CN2CCN(CC)CC2)c2cc(F)ccc21	99	99
CCCCCCCCn1cc(CN2CCC(C)CC2)c2cc(F)ccc21	99	99
CC(C)=CCC/C(C)=C/Cn1cc(CNC2CCCC2)c2cc(F)ccc21	99	99
CCCCCCCCn1cc(CN(CCCC)CCCC)c2cc(F)ccc21	99	99
CC(C)=CCC/C(C)=C/Cn1cc(CN2CCCCC2)c2cc(Br)ccc21	99	99
CCCN(C)Cc1cn(C/C=C(\C)CCC=C(C)C)c2ccc(F)cc12	99	99
Fc1ccc2[nH]cc(CN3CCCCC3)c2c1	99	99
CCCCCCCCn1cc(CN(CC)CCC)c2cc(F)ccc21	99	99
CCCCCCCCn1cc(CN2CCCCC2)c2cc(F)ccc21	99	99
CCCCCCCCn1cc(CNC23CC4CC(CC(C4)C2)C3)c2cccc(F)c21	99	99
CCCN(CC)Cc1cn(C/C=C(\C)CCC=C(C)C)c2ccc(F)cc12	99	99
N#CCCCn1cc(CN2CCCCC2)c2cc(F)ccc21	99	99
CCCCCCCCn1cc(CN2CCCCC2)c2c(F)cccc21	99	99
CCCCCCCCn1cc(CN2CCCCCC2)c2c(OC)cccc21	99	99
CCCCCCCCn1cc(CN(CC)CC)c2cc(F)ccc21	99	99
CC(C)=CCC/C(C)=C/Cn1ccc2cc(F)ccc21	99	99
CC(C)=CCC/C(C)=C/Cn1cc(C(=O)N2CCCCC2)c2cc(F)ccc21	99	99
COc1ccc2c(c1)c(CN1CCCCC1)cn2C/C=C(\C)CCC=C(C)C	99	99
CC(C)=CCC/C(C)=C/Cn1cc(CN2CCC(C)CC2)c2cc(F)ccc21	99	99
CC(C)=CCC/C(C)=C/Cn1cc(CN2CCN(C)CC2)c2cc(F)ccc21	99	99
CCCCCCCCn1cc(CN2CCCCCC2)c2cc(OC)ccc21	99	99
CCN1CCN(Cc2cn(C/C=C(\C)CCC=C(C)C)c3ccc(F)cc23)CC1	99	99
CCCCCCCCn1cc(CN2CCCCCC2)c2ccc(F)cc21	99	99
CCCCCCCCn1cc(CN2CCN(C)CC2)c2cc(F)ccc21	99	99

SMILES	inhibition of growth at 10 µM [1] [%]	inhibition of growth at 10 µM [2] [%]
Fc1ccc2c(c1)c(CN1CCCCC1)cn2CCC1CCCCC1	99	99
CCCCCCCCn1cc(CN2CCCCC2)c2cccc(OC)c21	99	99
CCCCCCCCn1cc(CN2CCCCC2)c2cc(Cl)ccc21	99	99
CCCCCCCCn1cc(CN2CCCCCC2)c2cccc(OC)c21	99	99
CCCCCCCCn1cc(CN2CCC(C)CC2)c2cc(OC)ccc21	99	99
CCCCCCCCn1cc(CN2CCOCC2)c2cc(F)ccc21	99	99
CC(C)=CCC/C(C)=C/Cn1cc(CN2CCOCC2)c2cc(F)ccc21	99	99
CCCCN(CCCC)Cc1cn(C/C=C(\C)CCC=C(C)C)c2ccc(F)cc12	99	99
CCCCCCCCn1cc(CN2CCC3(CC2)OCCO3)c2cc(F)ccc21	99	99
CCCCCCCCn1cc(CN2CCCCC2)c2ccc(F)cc21	99	99
CCCCCCCCn1cc(CN2CCCCC2)c2ccc(OC)cc21	99	99
CCCCCCCCn1cc(CNCCC)c2cc(F)ccc21	99	99
CCCCCCCCn1cc(CNC(C)C)c2cc(F)ccc21	99	99
CCCCCCCCn1ccc2cc(F)ccc21	99	99
CC(C)=CCC/C(C)=C/Cn1cc(CN2CCCCC2)c2ccccc21	99	99
CCCCCCCCn1cc(CNC2CCCC2)c2cc(F)ccc21	99	99
CCCCn1cc(CN2CCCCC2)c2cc(F)ccc21	99	99
CC(C)=CCC/C(C)=C/Cn1cc(CN2CCS(=O)(=O)CC2)c2cc(F)ccc21	99	99
CCCCCCCCn1cc(CN2CCCCC2)c2cc(Br)ccc21	99	99
CCCCCCCCn1cc(CN(CCC)CCC)c2cc(F)ccc21	99	99
CCCCCCCCn1cc(CN2CCC(C)CC2)c2ccc(F)cc21	99	99
CCCCCCCCn1cc(CN2CCC3(CC2)OCCO3)c2cc(OC)ccc21	99	99
CCCCCCCCn1cc(CN2CCCCCC2)c2cccc(F)c21	99	99
CCCCCCCCn1cc(CN2CCC3(CC2)OCCO3)c2cccc(OC)c21	99	99
CC(C)=CCC/C(C)=C/Cn1cc(CN(C)C)c2cc(F)ccc21	99	99
CCCCCCCCn1cc(CNC23CC4CC(CC(C4)C2)C3)c2cc(OC)ccc21	99	99

SMILES	inhibition of growth at 10 µM [1] [%]	inhibition of growth at 10 µM [2] [%]
CCCCCCCCn1cc(CN2CCC3(CC2)OCCO3)c2cccc(F)c21	99	99
CC(C)=CCC/C(C)=C/Cn1cc(CNC2CCCCCC2)c2cc(F)ccc21	99	99
Fc1ccc2c(c1)c(CN1CCCCC1)cn2CCCc1ccccc1	99	99
CCN(CC)Cc1cn(C/C=C(\C)CCC=C(C)C)c2ccc(F)cc12	99	99
CC(C)=CCC/C(C)=C/Cn1cc(CN2CCCCC2)c2cccnc21	99	99
CCCCCCCCn1cc(CN2CCCCC2)c2cccc(F)c21	99	99
CCCCNC(=O)Cn1cc(CN2CCCCC2)c2cc(F)ccc21	99	99
CCCCCCCCn1cc(CNC2CCCCCC2)c2cc(F)ccc21	99	99
CCCCCCCCn1cc(CNC23CC4CC(CC(C4)C2)C3)c2c(OC)cccc21	99	99
CCCCCCCCn1cc(CN2CCCCC2)c2cc(OC)ccc21	99	99
CCCCCCCCn1cc(CNC23CC4CC(CC(C4)C2)C3)c2ccc(OC)cc21	99	99
CCCCCCCCn1cc(CN(C)CCC)c2cc(F)ccc21	99	99
CCCCCCCCn1cc(CN2CCC(C)CC2)c2cccc(F)c21	99	99
CCCCCCCCn1cc(CN2CCC3(CC2)OCCO3)c2c(OC)cccc21	99	99
CC(C)=CCC/C(C)=C/Cn1cc(CNC23CC4CC(CC(C4)C2)C3)c2cc(F)ccc21	99	99
CCCCCCCCn1cc(CN2CCCC2)c2cc(F)ccc21	99	99
CCCCCCCCn1cc(CN2CCCCC2)c2ccccc21	99	99
CCCN(CCC)Cc1cn(C/C=C(\C)CCC=C(C)C)c2ccc(F)cc12	99	99
Fc1ccc2c(c1)c(CN1CCCCC1)cn2Cc1ccccc1	99	99
CCCCCCCCn1cc(CNC2CC2)c2cc(F)ccc21	99	99
CC(C)=CCC/C(C)=C/Cn1cc(CN2CCCC2)c2cc(F)ccc21	99	99
CC(C)=CCC/C(C)=C/Cn1cc(CN2CCC3(CC2)OCCO3)c2cc(F)ccc21	99	99
CCCCCCCCn1cc(CN2CCC(C)CC2)c2c(OC)cccc21	99	99
O=C(Cn1cc(CN2CCCCC2)c2cc(F)ccc21)NC1CC1	99	99
CC(C)=CCC/C(C)=C/Cn1cc(CN2CCSCC2)c2cc(F)ccc21	99	99
